# In US20230107642A1 (Erasca, Inc., priority 2020, published 2023):
# Biological target: T1, Cys12 of the KRAS 4B G12C protein (Homo sapiens, UniProt P01116, G12C)
# T1 construct: This protein contained 188 amino acids in total, including an N-terminal 6-Histidine tag; made in house; host or cells: E. coli BL21
# Experiment: In vitro covalent adduct formation (CAF) assay, LC-MS intact mass
# Type: binding
# Settings: 10 uM compound, 60 min incubation
# Procedure, shortened: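 GDP-loaded (>95%) His-TEV-tagged KRAS 4B G12C (residues 1–169), 5 μM in TBS pH 7.4, incubated with 10 μM compound (4% DMSO) at 22° C for one hour. Intact-protein LC-MS gave free:adduct ratios, reported as percent protein modified; duplicate runs.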
row,Compound,% CAF 10 uM @ 60 min [%]
1,"C=CC(=O)N1[C@H](C)CN(c2nc(=O)n3c4c(c(-c5cc(Cl)c(F)cc5F)c(C(F)(F)F)cc24)SC[C@@H]3COC)C[C@@H]1C (single isomer, unassigned) [Example 1140]",93.9

# Same assay, conditions: after 60 min
row,Compound,CAF (% binding after 60 min) [%]
1,"C=CC(=O)N1[C@H](C)CN(c2nc(=O)n3c4c(c(-c5ccc(F)cc5F)c(C(F)(F)F)cc24)SC[C@H](N(C)C)C3)C[C@@H]1C [Example 1001, (3R)-8-((3S,5R)-4-acryloyl-3,5-dimethylpiperazin-1-yl)-11-(2,4-difluorophenyl)-3-(dimethylamino)-10-(trifluoromethyl)-3,4-dihydro-2H,6H-[1,4]thiazepino[2,3,4-ij]quinazolin-6-one]",84
2,"C=CC(=O)N1CCN(c2nc(=O)n3c4c(c(-c5ccc(F)cc5)c(C(F)(F)F)cc24)SC[C@H](O)C3)CC1 [Example 1002, (R)-8-(4-acryloylpiperazin-1-yl)-11-(4-fluorophenyl)-3-hydroxy-10-(trifluoromethyl)-3,4-dihydro-2H,6H-[1,4]thiazepino[2,3,4-ij]quinazolin-6-one]",97
3,"C=CC(=O)N1[C@H](C)CN(c2nc(=O)n3c4c(c(-c5ccc(F)cc5)c(C(F)(F)F)cc24)SC[C@@H](O)C3)C[C@@H]1C [Example 1003, (S)-8-((3S,5R)-4-acryloyl-3,5-dimethylpiperazin-1-yl)-11-(4-fluorophenyl)-3-hydroxy-10-(trifluoromethyl)-3,4-dihydro-2H,6H-[1,4]thiazepino[2,3,4-ij]quinazolin-6-one]",95
4,"C=CC(=O)N1CCN(c2nc(=O)n3c4c(c(-c5ccc(F)cc5)c(C(F)(F)F)cc24)SC[C@@H](OCOC)C3)CC1 [Example 1004, (S)-8-(4-acryloylpiperazin-1-yl)-11-(4-fluorophenyl)-3-(methoxymethoxy)-10-(trifluoromethyl)-3,4-dihydro-2H,6H-[1,4]thiazepino[2,3,4-ij]quinazolin-6-one]",97
5,"C=CC(=O)N1CCN(c2nc(=O)n3c4c(c(-c5ccc(F)cc5)c(C(F)(F)F)cc24)SC[C@H](OCOC)C3)CC1 [Example 1005, (R)-8-(4-acryloylpiperazin-1-yl)-11-(4-fluorophenyl)-3-(methoxymethoxy)-10-(trifluoromethyl)-3,4-dihydro-2H,6H-[1,4]thiazepino[2,3,4-ij]quinazolin-6-one]",97
6,"C=CC(=O)N1CCN(c2nc(=O)n3c4c(c(-c5ccc(F)c(Cl)c5)c(C(F)(F)F)cc24)SC[C@H](OCOC)C3)CC1 [Example 1006, (R)-8-(4-acryloylpiperazin-1-yl)-11-(3-chloro-4-fluorophenyl)-3-(methoxymethoxy)-10-(trifluoromethyl)-3,4-dihydro-2H,6H-[1,4]thiazepino[2,3,4-ij]quinazolin-6-one]",90
7,"C=CC(=O)N1CCN(c2nc(=O)n3c4c(c(-c5ccc(F)c(Cl)c5)c(C(F)(F)F)cc24)SC[C@@H](OCOC)C3)CC1 [Example 1007, (S)-8-(4-acryloylpiperazin-1-yl)-11-(3-chloro-4-fluorophenyl)-3-(methoxymethoxy)-10-(trifluoromethyl)-3,4-dihydro-2H,6H-[1,4]thiazepino[2,3,4-ij]quinazolin-6-one]",97
8,"C=CC(=O)N1CCN(c2nc(=O)n3c4c(c(-c5cc(Cl)c(F)cc5F)c(C(F)(F)F)cc24)SC[C@H](OCOC)C3)CC1 [Example 1008, (3R)-8-(4-acryloylpiperazin-1-yl)-11-(5-chloro-2,4-difluorophenyl)-3-(methoxymethoxy)-10-(trifluoromethyl)-3,4-dihydro-2H,6H-[1,4]thiazepino[2,3,4-ij]quinazolin-6-one]",92
9,"C=CC(=O)N1[C@H](C)CN(c2nc(=O)n3c4c(c(-c5ccc(F)cc5)c(C(F)(F)F)cc24)SC[C@H](OCOC)C3)C[C@@H]1C [Example 1009, (R)-8-((3S,5R)-4-acryloyl-3,5-dimethylpiperazin-1-yl)-11-(4-fluorophenyl)-3-(methoxymethoxy)-10-(trifluoromethyl)-3,4-dihydro-2H,6H-[1,4]thiazepino[2,3,4-ij]quinazolin-6-one]",96
10,"C=CC(=O)N1[C@H](C)CN(c2nc(=O)n3c4c(c(-c5ccc(F)cc5)c(C(F)(F)F)cc24)SC[C@@H](OCOC)C3)C[C@@H]1C [Example 1010, (S)-8-((3S,5R)-4-acryloyl-3,5-dimethylpiperazin-1-yl)-11-(4-fluorophenyl)-3-(methoxymethoxy)-10-(trifluoromethyl)-3,4-dihydro-2H,6H-[1,4]thiazepino[2,3,4-ij]quinazolin-6-one]",96
11,"C=CC(=O)N1[C@H](C)CN(c2nc(=O)n3c4c(c(-c5ccc(F)cc5F)c(C(F)(F)F)cc24)SC[C@H](OCOC)C3)C[C@@H]1C [Example 1011, (3R)-8-((3S,5R)-4-acryloyl-3,5-dimethylpiperazin-1-yl)-11-(2,4-difluorophenyl)-3-(methoxymethoxy)-10-(trifluoromethyl)-3,4-dihydro-2H,6H-[1,4]thiazepino[2,3,4-ij]quinazolin-6-one]",97
12,"C=CC(=O)N1[C@H](C)CN(c2nc(=O)n3c4c(c(-c5ccc(F)cc5F)c(C(F)(F)F)cc24)SC[C@@H](OCOC)C3)C[C@@H]1C [Example 1012, (3S)-8-((3S,5R)-4-acryloyl-3,5-dimethylpiperazin-1-yl)-11-(2,4-difluorophenyl)-3-(methoxymethoxy)-10-(trifluoromethyl)-3,4-dihydro-2H,6H-[1,4]thiazepino[2,3,4-ij]quinazolin-6-one]",95
13,"C=CC(=O)N1[C@H](C)CN(c2nc(=O)n3c4c(c(-c5ccc(F)c(Cl)c5)c(C(F)(F)F)cc24)SC[C@H](OCOC)C3)C[C@@H]1C [Example 1013, (R)-8-((3S,5R)-4-acryloyl-3,5-dimethylpiperazin-1-yl)-11-(3-chloro-4-fluorophenyl)-3-(methoxymethoxy)-10-(trifluoromethyl)-3,4-dihydro-2H,6H-[1,4]thiazepino[2,3,4-ij]quinazolin-6-one]",95
14,"C=CC(=O)N1[C@H](C)CN(c2nc(=O)n3c4c(c(-c5ccc(F)c(Cl)c5)c(C(F)(F)F)cc24)SC[C@@H](OCOC)C3)C[C@@H]1C [Example 1014, (S)-8-((3S,5R)-4-acryloyl-3,5-dimethylpiperazin-1-yl)-11-(3-chloro-4-fluorophenyl)-3-(methoxymethoxy)-10-(trifluoromethyl)-3,4-dihydro-2H,6H-[1,4]thiazepino[2,3,4-ij]quinazolin-6-one]",96
15,"C=CC(=O)N1[C@H](C)CN(c2nc(=O)n3c4c(c(-c5cc(Cl)c(F)cc5F)c(C(F)(F)F)cc24)SC[C@@H](OCOC)C3)C[C@@H]1C [Example 1015, (3S)-8-((3S,5R)-4-acryloyl-3,5-dimethylpiperazin-1-yl)-11-(5-chloro-2,4-difluorophenyl)-3-(methoxymethoxy)-10-(trifluoromethyl)-3,4-dihydro-2H,6H-[1,4]thiazepino[2,3,4-ij]quinazolin-6-one]",84
16,"C=CC(=O)N1CCN(c2nc(=O)n3c4c(c(-c5ccc(F)cc5)c(C(F)(F)F)cc24)SC[C@H](OCCOC)C3)CC1 [Example 1016, (R)-8-(4-acryloylpiperazin-1-yl)-11-(4-fluorophenyl)-3-(2-methoxyethoxy)-10-(trifluoromethyl)-3,4-dihydro-2H,6H-[1,4]thiazepino[2,3,4-ij]quinazolin-6-one]",98
